Results reported in patent publication US10800788B2, “4-(aryl)-N-(3-alkoxyfuro[2,3-b]pyrazin-2-yl)-piperazine-1-carboxamide derivative and antiproliferative effect thereof” (Dongguk University Industry-Academic Cooperation Foundation, priority 2016, dated 2020).
Like-named read-outs stand apart in the source and are kept apart here.

Legend:
[1] = test system: A549; assay: Cell growth inhibition experiment (SRB), A549; assay type: cell-based; conditions: Homo sapiens, A549, 96 h, 96 hours incubation, read-out: IC50 (μM) for cancer cell line A549
Description: (§1) The 4-(aryl)-N-(3-alkoxyfuro[2,3-b]pyrazin-2-yl)-piperazine-1-carboxamide derivative compounds synthesized according to Examples 1 to 60 of the present invention were treated with various human tissue-derived cancer cell lines cultured according to Experimental Example 1, and thus the inhibitory effect of the growth of human cancer cells was confirmed. The cell growth inhibition experiment was conducted using the sulforhodamine B (SRB) technique (Skehan et al., J. National Cancer Institute, 1990, 82: 1107-1112). Specifically, each cell line was seeded in a 96-well plate at a density of 2 to 3×10^3 cells/well, cultured overnight, and then treated with the 4-(aryl)-N-(3-alkoxyfuro[2,3-b]pyrazin-2-yl)-piperazine-1-carboxamide derivative compounds of the present invention. The experiment was repeated 3 times for each compound. Cells treated with each compound were additionally incubated for 96 hours, fixed with 10% trichloroacetic acid (TCA), and then left at 4° C. for 1 hour. The resultant was washed 3 times with distilled water. Thereafter, each cell was treated with 0.4% sulforhodamine B dissolved in 1% acetic acid, stained for 30 minutes, and then washed 4 times with 1% acetic acid. The resultant was dried in the air. After shaking the resultant in Tris solution (10 mM) for 5 minutes, the absorbance was measured at 530 nm using a Benchmark Plus Microplate reader (Bio-Rad Laboratories, Hercules, Calif.).
(§2) In order to convert the OD530 value to the number of viable cells per each well, the measured OD530 value was compared to the standard OD530-vs.-cell number curve of each cell line. The percent survival was calculated using the following formula: % survival=Nlive cells(test)/Nlive cells(control)×100

[2] = test system: HEK293; assay: Cell growth inhibition experiment (SRB), HEK293; assay type: cell-based, human; conditions: 96 hours incubation, read-out: IC50 (μM) for cancer cell line HEK293
Description: as §1, §2

[3] = test system: PANC-1 (pancreatic cancer) cell line; assay: Cell growth inhibition experiment (SRB), PANC-1; assay type: cell-based; conditions: Homo sapiens, PANC-1, 96 h, 96 hours incubation
Description: (§3) The cell lines below were used in order to confirm the efficacy of the compounds synthesized in Examples 1 to 60. Human PANC-1 (pancreatic cancer) and MDA-MB-231 (breast cancer) cell lines were obtained from the American Type Culture Collection (ATCC; Manassas, Va.); and HN31 (head and neck cancer) and UMRC2 (kidney cancer) cell lines were secured from the United States National Institutes of Health (Bethesda, Md.). The MDA-MB-231, UMRC2, HN31, and PANC-1 cell lines were cultured in Dulbecco modified Eagle medium (DMEM; Invitrogen, Carlsbad, Calif.) containing FBS (10%), HEPES (10 mM), penicillin (100 U/mL), and streptomycin (100 μg/mL). All cell lines were cultured in an incubator (37° C., 5% CO2).
as §1, §2

[4] = test system: UMRC2 (kidney cancer) cell line; assay: Cell growth inhibition experiment (SRB), UMRC2; assay type: cell-based, human; conditions: 96 hours incubation
Description: as §3, §1, §2

[5] = test system: HT29; assay: Cell growth inhibition experiment (SRB), HT29; assay type: cell-based, human; conditions: 96 hours incubation, read-out: IC50 (μM) for cancer cell line HT29
Description: as §1, §2

[6] = test system: HN31 (head and neck cancer) cell line; assay: Cell growth inhibition experiment (SRB), HN31; assay type: cell-based, human; conditions: 96 hours incubation
Description: as §3, §1, §2

[7] = test system: MDA-MB-231 (breast cancer) cell line; assay: Cell growth inhibition experiment (SRB), MDA-MB-231; assay type: cell-based, human; conditions: 96 hours incubation
Description: as §3, §1, §2

[8] = test system: HUVEC; assay: Cell growth inhibition experiment (SRB), HUVEC; assay type: cell-based, human; conditions: 96 hours incubation, read-out: IC50 (μM) […]
Description: as §1, §2

[9] = test system: SK-OV-3; assay: Cell growth inhibition experiment (SRB), SK-OV-3; assay type: cell-based, human; conditions: 96 hours incubation, read-out: IC50 (μM) for cancer cell line SK-OV-3
Description: as §1, §2

Structure (SMILES)	IC50 [1]	IC50 ([2]; Homo sapiens, HEK293, 96 h)	IC50 [3]	IC50 ([4]; Homo sapiens, UMRC2, 96 h)	IC50 ([5]; Homo sapiens, HT-29, 96 h)	IC50 ([6]; Homo sapiens, 96 h)	IC50 ([7]; Homo sapiens, MDA-MB-231, 96 h)	IC50 ([8]; Homo sapiens, HUVEC, 96 h)	IC50 ([9]; Homo sapiens, SK-OV-3, 96 h)	IC50 [2]	IC50 [4]	IC50 [5]	IC50 [6]	IC50 [7]	IC50 [8]	IC50 [9]
COc1nc2occc2nc1NC(=O)N1CCN(c2cc(F)cc(C(F)(F)F)c2)CC1 [Example 8, 4-(3-Fluoro-5-(trifluoromethyl)phenyl)-N-(3-methoxyfuro[2,3-b]pyrazin-2-yl)piperazine-1-carboxamide]	< 2.5 µM	< 2.5 µM	1.98 µM	0.88 µM	< 2.5 µM	< 2.5 µM	0.98 µM	< 2.5 µM	< 2.5 µM	–	–	–	–	–	–	–
CCOc1nc2oc(C)cc2nc1NC(=O)N1CCN(c2cc(C)cc(OC)c2)CC1 [Example 32, N-(3-Ethoxy-6-methylfuro[2,3-b]pyrazin-2-yl)-4-(3-methoxy-5-methylphenyl)piperazine-1-carboxamide]	1.39 µM	1.12 µM	0.32 µM	0.52 µM	< 2.5 µM	1.63 µM	0.44 µM	< 2.5 µM	< 2.5 µM	–	–	–	–	–	–	–
CCOc1nc2oc(C)cc2nc1NC(=O)N1CCN(c2cc(C)cc(C)c2)CC1 [Example 35, 4-(3,5-Dimethylphenyl)-N-(3-ethoxy-6-methylfuro[2,3-b]pyrazin-2-yl)piperazine-1-carboxamide]	1.02 µM	1.12 µM	0.43 µM	0.54 µM	< 2.5 µM	0.44 µM	0.24 µM	< 2.5 µM	< 2.5 µM	–	–	–	–	–	–	–
CCOc1nc2occc2nc1NC(=O)N1CCN(c2cc(C)cc(F)c2)CC1 [Example 16, N-(3-Ethoxyfuro[2,3-b]pyrazin-2-yl)-4-(3-fluoro-5-methylphenyl)piperazine-1-carboxamide]	< 2.5 µM	< 2.5 µM	< 2.5 µM	0.44 µM	< 2.5 µM	< 2.5 µM	0.24 µM	< 2.5 µM	< 2.5 µM	–	–	–	–	–	–	–
COc1nc2oc(C)cc2nc1NC(=O)N1CCN(c2cc(C)cc(F)c2)CC1 [Example 26, 4-(3-Fluoro-5-methylphenyl)-N-(3-methoxy-6-methylfuro[2,3-b]pyrazin-2-yl)piperazine-1-carboxamide]	< 2.5 µM	< 2.5 µM	< 2.5 µM	1.56 µM	< 2.5 µM	< 2.5 µM	1.32 µM	< 2.5 µM	< 2.5 µM	–	–	–	–	–	–	–
COc1nc2occc2nc1NC(=O)N1CCN(c2cccc(OC(F)(F)F)c2)CC1 [Example 10, N-(3-Methoxyfuro[2,3-b]pyrazin-2-yl)-4-(3-(trifluoromethoxy)phenyl)piperazine-1-carboxamide]	1.14 µM	0.56 µM	0.68 µM	1.13 µM	1.27 µM	0.28 µM	1.02 µM	1.36 µM	1.23 µM	–	–	–	–	–	–	–
CCOc1nc2occc2nc1NC(=O)N1CCN(c2cc(F)cc(C(F)(F)F)c2)CC1 [Example 18, N-(3-Ethoxyfuro[2,3-b]pyrazin-2-yl)-4-(3-fluoro-5-(trifluoromethyl)phenyl)piperazine-1-carboxamide]	< 2.5 µM	< 2.5 µM	< 2.5 µM	0.24 µM	< 2.5 µM	< 2.5 µM	0.44 µM	< 2.5 µM	< 2.5 µM	–	–	–	–	–	–	–
COc1nc2oc(Cl)cc2nc1NC(=O)N1CCN(c2cc(F)cc(F)c2)CC1 [Example 47, N-(6-Chloro-3-methoxyfuro[2,3-b]pyrazin-2-yl)-4-(3,5-difluorophenyl)piperazine-1-carboxamide]	0.57 µM	0.63 µM	0.41 µM	0.68 µM	1.92 µM	0.68 µM	0.43 µM	1.87 µM	1.93 µM	–	–	–	–	–	–	–
CCOc1nc2oc(Cl)cc2nc1NC(=O)N1CCN(c2cc(OC)cc(OCCN(C)C)c2)CC1 [Example 54, N-(6-Chloro-3-ethoxyfuro[2,3-b]pyrazin-2-yl)-4-(3-(2-(dimethylamino)ethoxy)-5-methoxyphenyl)piperazine-1-carboxamide]	1.86 µM	1.65 µM	1.88 µM	1.32 µM	< 2.5 µM	1.78 µM	1.68 µM	1.75 µM	< 2.5 µM	–	–	–	–	–	–	–
CCOc1nc2oc(Cl)cc2nc1NC(=O)N1CCN(c2cc(C)cc(OC)c2)CC1 [Example 52, N-(6-Chloro-3-ethoxyfuro[2,3-b]pyrazin-2-yl)-4-(3-methoxy-5-methylphenyl)piperazine-1-carboxamide]	1.87 µM	1.74 µM	1.68 µM	0.68 µM	< 2.5 µM	1.36 µM	1.18 µM	1.62 µM	< 2.5 µM	–	–	–	–	–	–	–
COc1nc2occc2nc1NC(=O)N1CCN(c2cc(C)cc(F)c2)CC1 [Example 6, 4-(3-Fluoro-5-methylphenyl)-N-(3-methoxyfuro[2,3-b]pyrazin-2-yl)piperazine-1-carboxamide]	1.78 µM	1.83 µM	0.98 µM	1.21 µM	< 2.5 µM	1.98 µM	1.13 µM	< 2.5 µM	< 2.5 µM	–	–	–	–	–	–	–
COc1nc2oc(Cl)cc2nc1NC(=O)N1CCN(c2cc(C(F)(F)F)cc(C(F)(F)F)c2)CC1 [Example 49, 4-(3,5-Bis(trifluoromethyl)phenyl)-N-(6-chloro-3-methoxy-furo[2,3-b]pyrazin-2-yl)piperazine-1-carboxamide]	< 2.5 µM	< 2.5 µM	1.68 µM	1.03 µM	< 2.5 µM	1.17 µM	0.32 µM	< 2.5 µM	< 2.5 µM	–	–	–	–	–	–	–
CCOc1nc2oc(C)cc2nc1NC(=O)N1CCN(c2cc(F)cc(C(F)(F)F)c2)CC1 [Example 38, N-(3-Ethoxy-6-methylfuro[2,3-b]pyrazin-2-yl)-4-(3-fluoro-5-(trifluoromethyl)phenyl)piperazine-1-carboxamide]	< 2.5 µM	< 2.5 µM	< 2.5 µM	< 2.5 µM	< 2.5 µM	< 2.5 µM	< 2.5 µM	< 2.5 µM	< 2.5 µM	–	–	–	–	–	–	–
CCOc1nc2occc2nc1NC(=O)N1CCN(c2cc(OC)cc(OC)c2)CC1 [Example 11, 4-(3,5-Dimethoxyphenyl)-N-(3-ethoxyfuro[2,3-b]pyrazin-2-yl)piperazine-1-carboxamide]	1.51 µM	0.65 µM	0.24 µM	0.07 µM	1.31 µM	0.41 µM	0.07 µM	0.07 µM	1.27 µM	–	–	–	–	–	–	–
COc1cc(F)cc(N2CCN(C(=O)Nc3nc4cc(Cl)oc4nc3OC)CC2)c1 [Example 43, N-(6-Chloro-3-methoxyfuro[2,3-b]pyrazin-2-yl)-4-(3-fluoro-5-methoxyphenyl)piperazine-1-carboxamide]	–	1.32 µM	–	0.32 µM	1.59 µM	0.68 µM	0.21 µM	1.77 µM	2.13 µM	< 2.5 µM	0.36 µM	< 2.5 µM	0.57 µM	0.12 µM	< 2.5 µM	< 2.5 µM
